pIC50, pKi: −log10 of the molar value.
Key:
cdMMP-2 = cdMMP-2 (Homo sapiens, UniProt P08253); assay: MMP microfluorometric profiling assay (fluorogenic Mca-peptide substrate); format: biochemical; settings: read-out: cdMMP-2 IC50
Description: The tested MMP enzymes were prepared more specifically in the laboratories of the applicants, with the exception of MMP-1. MMP-1 from human rheumatoid synovial fibroblasts was purchased from Calbiochem-Novabiochem Corporation, LaJolla. Preparation of the recombinant catalytic domain of human Gelatinase A (cdMMP-2): The catalytic domain of Pro-Gelatinase A was prepared using an E. coli expression system according to the method described by Kröger et al^[19]. The proenzyme was activated with 0.5 mM APMA at 37°C prior to use in the assay. […] Preparation of PMNL-Gelatinase (MMP-9): Latent PMNL-pro-Gelatinase was prepared from human plasma buffy coat as described by Tschesche et al^[21]. PMNL-pro-Gelatinase was activated prior to use by incubation with Trypsin at 37°C for 10 min. Inactivation of Trypsin was accomplished with TKI. […] The overexpressed protein was isolated as inclusion bodies and the renatured protein was purified by affinity chromatography with a hydroxamate inhibitor coupled column as described^[22]. Preparation of the recombinant catalytic domain of human Collagenase-3 (cdMMP-13): Human pro-cdMMP-13 was prepared using an E. coli expression system according to the method described^[23]. The isolated pro-cdMMP-13 was activated prior to use by incubation with 5 mM HgCl2 for 2 h at 37°C.
(§1) The enzymatic activity was measured using a modified version of a resonance energy transfer fluorogenic assay as described^[26]. Progress curves were monitored by following the increase in fluorescence at 393 nm (λex = 328 nm), induced by the cleavage of the (7-methoxycoumarin-4-yl)acetyl-Pro-Leu-Gly-Leu-(3-[2,4-dinitro-phenyl]-L-2,3-diamino-propionyl)-Ala-Arg-NH2 (Mca-Pro-Leu-Gly-Leu-Dpa-Ala-Arg-NH2) fluorogenic substrate by MMPs. The fluorescent MCA-group is quenched by resonance energy transfer to the 2,4-dinitrophenyl group. Matrix metalloproteinases cleave this substrate at the Gly-Leu bond. Cleavage results in the loss of energy transfer and a large increase in fluorescence of the MCA group. This substrate is commercially available from Bachem, Switzerland.
(§2) Enzyme inhibition assays were carried out in MRB which consisted of 50 mM HEPES/NaOH, pH 7.0, 10 mM CaCl2 and 0,02% (w/v) PEG 8000 at 25°C. MMP microfluorometric profiling assay was done in white U-bottomed 96-well plates (Microfluor 1 White, Dynex, USA) with a final substrate concentration of 6 µM MCA-peptide, approximately 0.3 to 5 nM MMP with variable inhibitor concentrations and 2% DMSO vehicle. From a 1.5 mM stock (100% DMSO) the inhibitors were serially diluted with MRB to 15, 10, 5, 3, 1, 0.6, 0.3, 0.1, 0.05, 0.01 and 0.005 µM final assay concentration. Column 1, rows A through H, contained only DMSO for the "enzyme-only" wells in the assay. After preincubation for 30 min at 25°C the reaction was started by addition of substrate and the plate was read on a SpectraFluor Plus (Tecan, Germany) plate reader with excitation at 330 nm and emission at 405 nm with the gain set to 150. Each measurement was done in triplicate to ensure statistically significant results. The experiment was further controlled for background fluorescence of the substrate, for fluorescence of fully cleaved substrate and for fluorescence quenching or augmentation from solutions containing the test compounds.
Datapoints from eight different MMPs generated on the SpectraFluor Plus were directly visualized on a master Excel spreadsheet. The response of inhibition was determinated for each inhibitor concentration by comparing the amount of hydrolysis (fluorescence units generated over 30 minutes of hydrolysis) of wells containing compound with the "enzyme-only" wells in column 1. With the program GraFit (Erithacus Software Limited) a 4 parameter logistic fit to the dose-response data was used to calculate IC50 values for each compound.

MMP-9 = biological target: T1, MMP-9 (Homo sapiens, UniProt P14780); assay: as above; format: biochemical
T1 construct: from tissue; host or cells: human plasma buffy coat (PMNL)
Description: (§3) The tested MMP enzymes were prepared more specifically in the laboratories of the applicants, with the exception of MMP-1. MMP-1 from human rheumatoid synovial fibroblasts was purchased from Calbiochem-Novabiochem Corporation, LaJolla. Preparation of the recombinant catalytic domain of human Gelatinase A (cdMMP-2): The catalytic domain of Pro-Gelatinase A was prepared using an E. coli expression system according to the method described by Kröger et al^[19]. The proenzyme was activated with 0.5 mM APMA at 37°C prior to use in the assay. Preparation of the recombinant catalytic domain of human neutrophile Collagenase (cdMMP-8^Met80): The enzyme was expressed in E. coli as an active variant by the method of Kleine et al^[20]. Preparation of PMNL-Gelatinase (MMP-9): Latent PMNL-pro-Gelatinase was prepared from human plasma buffy coat as described by Tschesche et al^[21]. PMNL-pro-Gelatinase was activated prior to use by incubation with Trypsin at 37°C for 10 min. Inactivation of Trypsin was accomplished with TKI. Preparation of the recombinant catalytic domain of human Macrophage Elastase (cdMMP-12): The catalytic domain of MMP-12 was expressed in E. coli. The overexpressed protein was isolated as inclusion bodies and the renatured protein was purified by affinity chromatography with a hydroxamate inhibitor coupled column as described^[22]. Preparation of the recombinant catalytic domain of human Collagenase-3 (cdMMP-13): Human pro-cdMMP-13 was prepared using an E. coli expression system according to the method described^[23]. The isolated pro-cdMMP-13 was activated prior to use by incubation with 5 mM HgCl2 for 2 h at 37°C. Preparation of the recombinant catalytic domain of Membrane-Type-1 MMP (cdMMP-14): The catalytic domain of MMP-14 was expressed in E. coli and was activated by autocatalysis^[24]. Preparation of the recombinant human ectodomain of Membrane-Type-1 MMP (ΔTM-MMP-14): The ectodomain of MMP-14 was expressed in Pichia Pastoris by the method of Roderfeld et al. and activated by yeast proteases (Furin-like-proteases) during maturation^[25].
as §1
as §2, with “The experiment was further controlled for background fluorescence of the substrate, for fluorescence of fully cleaved substrate and for fluorescence quenching or augmentation from solutions containing the test compounds.” left out

cdMMP-12 = biological target: T2, cdMMP-12 (Homo sapiens, UniProt P39900); assay: as above; format: biochemical
T2 construct: The catalytic domain of MMP-12 was expressed in E. coli; made in house; host or cells: E. coli
Description: as §3, §1
as §2, with “The experiment was further controlled for background fluorescence of the substrate, for fluorescence of fully cleaved substrate and for fluorescence quenching or augmentation from solutions containing the test compounds.” left out

MMP-1 = biological target: T3, MMP-1 (Homo sapiens, UniProt P03956); assay: as above; format: biochemical
T3 construct: MMP-1 from human rheumatoid synovial fibroblasts was purchased; purchased Calbiochem-Novabiochem Corporation, LaJolla; host or cells: human rheumatoid synovial fibroblasts
T3 sequence (P03956 100-469): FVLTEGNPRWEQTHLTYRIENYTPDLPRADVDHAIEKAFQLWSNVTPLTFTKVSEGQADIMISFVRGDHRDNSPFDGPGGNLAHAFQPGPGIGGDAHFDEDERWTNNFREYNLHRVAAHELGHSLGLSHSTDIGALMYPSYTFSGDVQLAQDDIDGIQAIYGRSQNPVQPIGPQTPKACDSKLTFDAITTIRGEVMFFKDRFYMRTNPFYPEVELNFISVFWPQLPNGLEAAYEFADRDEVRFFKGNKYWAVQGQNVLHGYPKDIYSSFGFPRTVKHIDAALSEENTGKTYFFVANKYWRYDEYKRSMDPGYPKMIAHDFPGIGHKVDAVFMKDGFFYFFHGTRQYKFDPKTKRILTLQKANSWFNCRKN
Description: as §3, §1
as §2, with “The experiment was further controlled for background fluorescence of the substrate, for fluorescence of fully cleaved substrate and for fluorescence quenching or augmentation from solutions containing the test compounds.” left out

cdMMP-13 = cdMMP-13 (Homo sapiens, UniProt P45452); assay: as above; format: biochemical; settings: read-out: cdMMP-13 IC50
Description: as §3, §1
as §2, with “The experiment was further controlled for background fluorescence of the substrate, for fluorescence of fully cleaved substrate and for fluorescence quenching or augmentation from solutions containing the test compounds.” left out

cdMMP-14 = biological target: T4, cdMMP-14 (Homo sapiens, UniProt P50281); assay: as above; format: biochemical
T4 construct: made in house; host or cells: E. coli
Description: as §3, §1
as §2, with “The experiment was further controlled for background fluorescence of the substrate, for fluorescence of fully cleaved substrate and for fluorescence quenching or augmentation from solutions containing the test compounds.” left out

MMPs = assay: Ki determination in microfluorometric assay (Cheng-Prusoff, enzyme not specified); format: biochemical, human; settings: enzyme not given
Description: as §1
Enzyme inhibition assays were carried out in MRB which consisted of 50 mM HEPES/NaOH, pH 7.0, 10 mM CaCl2 and 0,02% (w/v) PEG 8000 at 25°C. […] After preincubation for 30 min at 25°C the reaction was started by addition of substrate and the plate was read on a SpectraFluor Plus (Tecan, Germany) plate reader with excitation at 330 nm and emission at 405 nm with the gain set to 150. […] The experiment was further controlled for background fluorescence of the substrate, for fluorescence of fully cleaved substrate and for fluorescence quenching or augmentation from solutions containing the test compounds. […]

T1 sequence (P14780 107-707 limits assumed): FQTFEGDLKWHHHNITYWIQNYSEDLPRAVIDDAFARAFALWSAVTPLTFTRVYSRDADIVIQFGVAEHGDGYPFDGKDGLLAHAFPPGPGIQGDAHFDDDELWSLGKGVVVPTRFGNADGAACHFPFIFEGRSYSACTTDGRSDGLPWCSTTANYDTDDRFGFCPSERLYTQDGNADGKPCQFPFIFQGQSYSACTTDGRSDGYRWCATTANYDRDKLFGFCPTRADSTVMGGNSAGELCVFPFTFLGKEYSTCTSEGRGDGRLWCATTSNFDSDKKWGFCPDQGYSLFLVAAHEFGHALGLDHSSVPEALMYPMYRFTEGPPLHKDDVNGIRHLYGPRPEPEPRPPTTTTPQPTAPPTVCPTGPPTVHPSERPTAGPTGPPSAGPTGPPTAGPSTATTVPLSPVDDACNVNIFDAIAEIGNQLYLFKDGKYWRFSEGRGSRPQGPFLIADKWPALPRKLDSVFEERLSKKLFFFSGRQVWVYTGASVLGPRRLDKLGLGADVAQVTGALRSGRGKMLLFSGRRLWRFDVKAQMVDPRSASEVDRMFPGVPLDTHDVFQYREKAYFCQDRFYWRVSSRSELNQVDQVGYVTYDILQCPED
Sequence of cdMMP-2 (P08253 110-446): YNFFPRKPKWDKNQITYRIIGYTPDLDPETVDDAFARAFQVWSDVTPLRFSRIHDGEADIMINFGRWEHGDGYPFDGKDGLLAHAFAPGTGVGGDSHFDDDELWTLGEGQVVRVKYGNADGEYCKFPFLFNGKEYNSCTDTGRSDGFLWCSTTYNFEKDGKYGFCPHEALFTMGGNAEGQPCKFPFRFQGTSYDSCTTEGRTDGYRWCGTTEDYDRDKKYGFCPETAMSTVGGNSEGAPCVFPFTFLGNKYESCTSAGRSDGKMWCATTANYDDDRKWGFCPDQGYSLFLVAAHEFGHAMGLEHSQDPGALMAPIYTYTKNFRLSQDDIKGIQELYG
T2 sequence (P39900 106-263 limits assumed): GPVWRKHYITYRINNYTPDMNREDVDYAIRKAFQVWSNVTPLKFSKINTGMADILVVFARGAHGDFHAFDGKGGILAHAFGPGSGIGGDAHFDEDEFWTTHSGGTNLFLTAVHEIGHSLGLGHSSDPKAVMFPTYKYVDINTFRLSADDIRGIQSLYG

Structure (SMILES) | pIC50 (cdMMP-2) | pIC50 (MMP-9) | pIC50 (cdMMP-12) | pIC50 (MMP-1) | pIC50 (cdMMP-13) | pIC50 (cdMMP-14) | pKi (MMPs)
C[C@H](NS(=O)(=O)c1ccccc1)C(=O)NC1=NN=C(c2ccc(F)cc2)CS1 [Example 13, (2S)-N-[5-(4-Fluorophenyl)-6H-1,3,4-thiadiazin-2-yl]-2-[(phenylsulfonyl)amino]-propanamide] | 6.13 | 6.16 | 6.47 | 6.30 | 5.93 | 6.08 | 
CC(C)(NS(=O)(=O)c1ccccc1)C(=O)NC1=NN=C(c2ccc(Cl)cc2)CS1 [Example 20, N-[5-(4-Chlorophenyl)-6H-1,3,4-thiadiazin-2-yl]-2-methyl-2-[(phenylsulfonyl)-amino]propanamide] |  |  |  |  |  |  | ~7.00

Source: patent publication EP1191024A1, “Thiadiazines and their use as inhibitors of metalloproteinases” (Tschesche, Harald, priority 2000, dated 2002)
